Test results published in patent publication US20240299334A1, “PHARMACEUTICAL COMPOSITION OF NAPHTHALENE DERIVATIVES AS MULTI-TARGETED THERAPEUTIC AGENTS FOR THE TREATMENT OF ALZHEIMER'S DISEASE” (CENTRO DE NEUROCIENCIAS DE CUBA, CNEURO, priority 2020, published 2024).

Tests used:
[1] = test system: seizures induced by icv administration of kainic acid; test: Seizures induced by icv administration of kainic acid (Racine scale); type: in vivo, mice; conditions: compound 3 5 and 50 mg/kg oral, 1 h before KA icv; effect greater with 50 mg/kg
Procedure: Young male OF-1 mice (20-25 g), supplied by the National Center for the Laboratory Animals Production (CENPALAB, Cuba) were used. The conditions of adaptation and maintenance of the animals before carrying out the experiment were similar to those developed in non-limiting Example 2. The mice were divided into 5 experimental groups (7 animals group) distributed in: a control group (PBS 2 μL, icv), a seizure control group (KA 2 μL, icv) and three groups treated orally by gastric cannulation with compound 3 at doses of 1, 5, 50 mg/kg […] and KA 2 μL, icv. Compound 3 was prepared as a suspension in 5% carboxymethylcellulose (CMC) vehicle. […]
For the icv administration of KA the mice were anesthetized with 685.71 mg/kg with chloral hydrate i.p. and placed on a dual manipulator. […] Stereotaxic coordinates for the lateral ventricle were precisely measured as: anteroposterior […], lateral±[…] and dorsoventral […] relative to bregma and ventral dura with the tooth bar at […]. A burr hole was made in the skull by automatic microperforation attached to an arm of the stereotaxic apparatus. […]
Statistical Analysis All data are expressed as the mean±standard error of the mean (SEM), and were analyzed using a one-way analysis of variance followed by Turkey's post-hoc test. […]

AChE = biological target: T1, AChE (Mus musculus, UniProt P21836); test: AChE activity ex vivo in brain homogenates (Ellman), acute ESC model; parameters: species or system mice; conditions: soluble fraction of brain homogenates, vs ESC group, 3 p<0.05, donepezil p<0.01
T1 construct: the resulting clear supernatants were used as enzyme sources; from tissue; host or cells: mouse whole brain, supernatant of the homogenate (10,000 x G)
T1 sequence (P21836 32-614): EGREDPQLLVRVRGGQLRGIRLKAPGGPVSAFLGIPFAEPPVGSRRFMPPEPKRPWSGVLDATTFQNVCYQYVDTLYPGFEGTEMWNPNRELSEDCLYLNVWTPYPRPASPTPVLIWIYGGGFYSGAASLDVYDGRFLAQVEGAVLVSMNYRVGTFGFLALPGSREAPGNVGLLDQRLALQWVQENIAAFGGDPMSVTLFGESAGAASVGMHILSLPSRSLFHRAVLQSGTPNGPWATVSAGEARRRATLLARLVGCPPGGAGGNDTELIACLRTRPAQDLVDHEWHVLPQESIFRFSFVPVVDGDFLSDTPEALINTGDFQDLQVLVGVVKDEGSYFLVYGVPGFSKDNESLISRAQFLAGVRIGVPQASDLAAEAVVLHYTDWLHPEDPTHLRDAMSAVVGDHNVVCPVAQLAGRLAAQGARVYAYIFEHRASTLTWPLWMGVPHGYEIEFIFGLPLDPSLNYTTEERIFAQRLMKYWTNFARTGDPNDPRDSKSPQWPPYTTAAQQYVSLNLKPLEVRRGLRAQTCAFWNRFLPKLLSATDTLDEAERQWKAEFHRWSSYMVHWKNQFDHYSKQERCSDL
Procedure: Briefly the procedure was as follows; at the end of the behavioral experiments, the mice were anesthetized and decapitated to quickly remove the brains, which were placed on an ice-cold plate. They were weighed and homogenized (1/10, w/v) in cold 10 mmol/L Tris-HCl buffer, pH 7.2, containing 160 mmol/L sucrose. The homogenates were centrifuged at 10,000×G for 10 minutes at 4° C., and the resulting clear supernatants were used as enzyme sources, which were aliquoted (n=10 per group) and stored at −20° C. The assay was performed in 96-well microtiter plates using Ellman's reagent (DTNB 10 mmol/L), 50 μL homogenate and 10 μL Acetylcholine iodide (AChl, 20 mmol/L) (final volume 200 μL). The absorbance of the yellow hydrolyzate of the 5-thio-2-nitrobenzoic acid dianion (molar extinction coefficient: 13 700 mol/L^−1 cm^−1), was measured at 412 nm, for 20 minutes with an interval of 1 minute. AChE activity was performed in triplicate and was expressed in nmol of hydrolyzed Achl per minute per mg of protein.
All data are expressed as the mean±standard error of the mean (SEM). The comparison of the cholinesterase activity values was carried out by means of a one-way analysis of variance, followed by the Turkey post-hoc test. Statistical analysis was performed using GraphPadPrism version 5 (GraphPad Software, Inc., San Diego, USA).

[2] = test system: memory loss induced with the chronic use of scopolamine; test: Morris water maze, chronic ESC model; type: in vivo, mice
Procedure: Male C57BL/6 mice (20-25 g), supplied by the National Center for the Laboratory Animals Production (CENPALAB, Cuba) were used. During the experiment, the animals received adlibitum water and standard diet supplied by CENPALAB. All procedures were carried out in accordance with the European Commission guidelines for the use and care of laboratory animals and approved by the Committee for the Research Animals Care. The minimum number of animals and duration of observations required to obtain consistent data was used.
At the end of the adaptation period, the animals were randomly distributed according to their body weights in five experimental groups of 12 animals each. For the induction of cognitive deficit, ESC (Sigma Aldrich) was used, which was dissolved in physiological saline and administered daily intraperitoneally (ip) at a dose of 1.5 mg/kg for 2 weeks, in the morning (Park J H, et al. In J Mol Neurosci. 2016; 59 (4): 579-589). Compound 3 was prepared as a suspension, in 0.5% soluble starch (Merck Millipore), and administered orally by intragastric cannula at a daily dose of 0.1, 1, 10 mg/kg of body weight […]. The experimental groups were: […]
Morris Water Maze (MWM): Analogous to Example 2, the two-day MWM test was used to determine long-term spatial memory. […] In this way, long-term spatial memory was determined by the quotient of the escape latency values D2T1/D1V6. […]

CSC(=S)NCCNC(=O)CCC(=O)Nc1cccc2ccccc12 [compound 3, methyl(2-{[4-(1-naphthylamino)-4-oxobutanoyl]amino}ethyl)dithiocarbamate]
total seizure score (0-120 minutes) [1]: significant decrease in the total score
AChE activity ex vivo (AChE): significantly reduced
maximum effect dose ([2]; MWM, chronic ESC model): 1 mg/kg
ratio of first escape latency with hidden platform (T7) and last test with visible platform (T6) ([2]; compound 3 1 and 10 mg/kg oral daily, ESC 1.5 mg/kg daily, 2 weeks): significantly decreased compared to the ESC group
